# Activity calls are given as the source filed them. The calls are words filed in the database; no cut-off is given here.
# What was measured:
# [1] = molecular target: Mast/stem cell growth factor receptor Kit (Homo sapiens, UniProt P10721); settings: 5 uM
# Description: Inhibition of c-KIT in imatinib-resistant human HMC-1.2 cells assessed as suppression of Erk phosphorylation at 5 uM after 1 hr by Western immunoblotting analysis
# [2] = molecular target: Cyclin-dependent kinase 9 (Homo sapiens) (UniProt P50750); assay: Inhibition of CDK9 (unknown origin) at 1 uM by KINOMEscanning assay relative to control; values are per cent of control
# [3] = molecular target: Dual specificity mitogen-activated protein kinase kinase 1 (Homo sapiens) (UniProt Q02750); assay: Inhibition of MEK1 (unknown origin) at 1 uM by KINOMEscanning assay relative to control; values are per cent of control
# [4] = molecular target: Serine/threonine-protein kinase PAK 1 (Homo sapiens) (UniProt Q13153); assay: Inhibition of PAK1 (unknown origin) at 1 uM by KINOMEscanning assay relative to control; values are per cent of control
# [5] = molecular target: Serine/threonine-protein kinase pim-1 (Homo sapiens) (UniProt P11309); assay: Inhibition of PIM1 (unknown origin) at 1 uM by KINOMEscanning assay relative to control; values are per cent of control
# [6] = molecular target: Serine/threonine-protein kinase PLK1 (Homo sapiens) (UniProt P53350); assay: Inhibition of PLK1 (unknown origin) at 1 uM by KINOMEscanning assay relative to control; values are per cent of control
# [7] = molecular target: High affinity nerve growth factor receptor (Homo sapiens) (UniProt P04629); assay: Inhibition of TRKA (unknown origin) at 1 uM by KINOMEscanning assay relative to control; values are per cent of control
# [8] = molecular target: BDNF/NT-3 growth factors receptor (Homo sapiens) (UniProt Q16620); assay: Inhibition of TRKB (unknown origin) at 1 uM by KINOMEscanning assay relative to control; values are per cent of control
# [9] = molecular target: T1, Aurora kinase A (Homo sapiens) (UniProt O14965); assay: Inhibition of AURKA (unknown origin) at 1 uM by KINOMEscanning assay relative to control; values are per cent of control
# T1 sequence (whole entry): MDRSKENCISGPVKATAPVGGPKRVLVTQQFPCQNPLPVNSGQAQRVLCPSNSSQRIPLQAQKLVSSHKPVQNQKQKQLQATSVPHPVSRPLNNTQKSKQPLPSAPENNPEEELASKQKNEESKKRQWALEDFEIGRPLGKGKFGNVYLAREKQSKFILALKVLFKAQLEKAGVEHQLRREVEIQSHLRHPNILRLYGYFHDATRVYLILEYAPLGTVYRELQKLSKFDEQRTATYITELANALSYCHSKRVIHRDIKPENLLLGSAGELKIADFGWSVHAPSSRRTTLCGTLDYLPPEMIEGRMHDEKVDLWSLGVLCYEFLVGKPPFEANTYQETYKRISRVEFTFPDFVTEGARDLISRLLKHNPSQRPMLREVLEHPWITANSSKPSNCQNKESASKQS
# [10] = molecular target: Fibroblast growth factor receptor 1 (Homo sapiens) (UniProt P11362); assay: Inhibition of FGFR1 (unknown origin) at 1 uM by KINOMEscanning assay relative to control; values are per cent of control
# [11] = molecular target: T2, 3-phosphoinositide-dependent protein kinase 1 (Homo sapiens) (UniProt O15530); assay: Inhibition of PDPK1 (unknown origin) at 1 uM by KINOMEscanning assay relative to control; values are per cent of control
# T2 sequence (whole entry): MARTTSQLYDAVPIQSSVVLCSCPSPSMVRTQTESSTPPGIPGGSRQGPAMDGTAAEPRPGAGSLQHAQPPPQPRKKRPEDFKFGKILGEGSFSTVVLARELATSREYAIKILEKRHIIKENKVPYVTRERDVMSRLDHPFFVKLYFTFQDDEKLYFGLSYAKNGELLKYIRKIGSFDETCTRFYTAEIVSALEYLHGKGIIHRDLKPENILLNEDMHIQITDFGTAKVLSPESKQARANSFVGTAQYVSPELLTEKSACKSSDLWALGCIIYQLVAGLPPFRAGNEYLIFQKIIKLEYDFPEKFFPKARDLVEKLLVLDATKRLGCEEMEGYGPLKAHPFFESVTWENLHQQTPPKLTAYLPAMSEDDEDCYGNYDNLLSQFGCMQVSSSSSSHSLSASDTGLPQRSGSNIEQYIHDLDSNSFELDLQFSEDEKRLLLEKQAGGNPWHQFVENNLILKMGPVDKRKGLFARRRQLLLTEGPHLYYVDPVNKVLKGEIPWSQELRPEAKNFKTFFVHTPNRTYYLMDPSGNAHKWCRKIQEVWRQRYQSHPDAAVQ
# [12] = molecular target: T3, Inhibitor of nuclear factor kappa-B kinase subunit alpha (Homo sapiens) (UniProt O15111); assay: Inhibition of IKKalpha (unknown origin) at 1 uM by KINOMEscanning assay relative to control; values are per cent of control
# T3 sequence (whole entry): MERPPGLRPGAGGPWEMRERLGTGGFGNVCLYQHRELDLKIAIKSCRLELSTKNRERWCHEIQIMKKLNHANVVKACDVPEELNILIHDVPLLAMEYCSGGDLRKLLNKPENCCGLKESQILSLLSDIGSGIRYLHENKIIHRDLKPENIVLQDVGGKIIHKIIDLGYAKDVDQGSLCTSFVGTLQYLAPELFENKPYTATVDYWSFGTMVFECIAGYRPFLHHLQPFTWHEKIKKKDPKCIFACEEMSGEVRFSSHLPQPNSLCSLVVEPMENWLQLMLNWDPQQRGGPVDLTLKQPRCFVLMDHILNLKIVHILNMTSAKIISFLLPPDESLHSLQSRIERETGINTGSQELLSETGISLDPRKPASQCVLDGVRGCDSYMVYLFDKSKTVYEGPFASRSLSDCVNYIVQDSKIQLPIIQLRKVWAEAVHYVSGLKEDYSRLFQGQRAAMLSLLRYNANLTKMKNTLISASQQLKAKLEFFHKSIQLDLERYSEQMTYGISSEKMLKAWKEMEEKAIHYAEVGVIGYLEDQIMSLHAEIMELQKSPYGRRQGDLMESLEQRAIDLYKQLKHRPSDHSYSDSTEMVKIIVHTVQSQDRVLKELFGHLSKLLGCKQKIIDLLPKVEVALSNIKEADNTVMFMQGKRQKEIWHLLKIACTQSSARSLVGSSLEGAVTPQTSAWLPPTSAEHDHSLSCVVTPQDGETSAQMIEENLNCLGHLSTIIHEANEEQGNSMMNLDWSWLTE
# [13] = molecular target: Phosphatidylinositol 4,5-bisphosphate 3-kinase catalytic subunit beta isoform (Homo sapiens) (UniProt P42338); assay: Inhibition of PI3Kbeta (unknown origin) at 1 uM by KINOMEscanning assay relative to control; values are per cent of control
# Chain of Serine/threonine-protein kinase PAK 1 (Homo sapiens) (Q13153 whole entry): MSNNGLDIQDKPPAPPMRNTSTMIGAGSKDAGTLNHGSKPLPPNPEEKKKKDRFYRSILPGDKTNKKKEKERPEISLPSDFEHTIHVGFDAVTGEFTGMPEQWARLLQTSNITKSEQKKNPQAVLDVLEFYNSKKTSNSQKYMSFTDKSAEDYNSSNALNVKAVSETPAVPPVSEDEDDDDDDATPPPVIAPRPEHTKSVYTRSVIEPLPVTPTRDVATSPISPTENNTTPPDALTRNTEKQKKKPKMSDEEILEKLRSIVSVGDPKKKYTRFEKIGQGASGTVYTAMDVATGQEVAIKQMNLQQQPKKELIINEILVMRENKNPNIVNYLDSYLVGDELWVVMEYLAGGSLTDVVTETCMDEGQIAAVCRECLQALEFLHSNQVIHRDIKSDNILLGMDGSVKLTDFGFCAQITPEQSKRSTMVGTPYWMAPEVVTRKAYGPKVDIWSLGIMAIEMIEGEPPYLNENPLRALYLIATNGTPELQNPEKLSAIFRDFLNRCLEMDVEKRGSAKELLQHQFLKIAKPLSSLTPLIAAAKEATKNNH
# Chain of Serine/threonine-protein kinase PLK1 (Homo sapiens) (P53350 whole entry): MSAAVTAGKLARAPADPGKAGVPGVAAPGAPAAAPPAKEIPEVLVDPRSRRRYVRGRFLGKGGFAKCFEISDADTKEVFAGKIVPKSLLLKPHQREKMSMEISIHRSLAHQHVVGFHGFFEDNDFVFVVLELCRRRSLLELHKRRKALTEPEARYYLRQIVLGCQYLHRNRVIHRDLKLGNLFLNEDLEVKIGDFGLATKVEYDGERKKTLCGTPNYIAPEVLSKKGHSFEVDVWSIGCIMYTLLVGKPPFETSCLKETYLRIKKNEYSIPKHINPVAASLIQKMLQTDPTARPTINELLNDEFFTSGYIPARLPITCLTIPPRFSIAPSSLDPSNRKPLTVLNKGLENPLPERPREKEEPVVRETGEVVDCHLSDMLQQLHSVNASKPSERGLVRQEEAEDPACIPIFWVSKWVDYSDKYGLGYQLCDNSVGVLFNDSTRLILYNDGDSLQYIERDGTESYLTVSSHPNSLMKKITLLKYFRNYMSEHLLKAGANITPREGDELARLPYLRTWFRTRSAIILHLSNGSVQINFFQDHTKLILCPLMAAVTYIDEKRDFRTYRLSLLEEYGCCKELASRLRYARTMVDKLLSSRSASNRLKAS
# Chain of Cyclin-dependent kinase 9 (Homo sapiens) (P50750 whole entry): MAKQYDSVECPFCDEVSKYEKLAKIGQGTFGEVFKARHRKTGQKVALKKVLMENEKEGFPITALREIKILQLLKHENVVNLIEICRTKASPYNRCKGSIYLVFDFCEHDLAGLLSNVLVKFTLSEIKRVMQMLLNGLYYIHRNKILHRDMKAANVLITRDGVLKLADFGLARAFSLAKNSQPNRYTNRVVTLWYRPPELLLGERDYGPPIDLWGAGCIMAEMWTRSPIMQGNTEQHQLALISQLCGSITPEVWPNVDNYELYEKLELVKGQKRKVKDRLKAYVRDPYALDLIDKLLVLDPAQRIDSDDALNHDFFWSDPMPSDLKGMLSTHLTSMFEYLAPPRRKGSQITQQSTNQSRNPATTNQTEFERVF
# Chain of Fibroblast growth factor receptor 1 (Homo sapiens) (P11362 22-822 limits assumed): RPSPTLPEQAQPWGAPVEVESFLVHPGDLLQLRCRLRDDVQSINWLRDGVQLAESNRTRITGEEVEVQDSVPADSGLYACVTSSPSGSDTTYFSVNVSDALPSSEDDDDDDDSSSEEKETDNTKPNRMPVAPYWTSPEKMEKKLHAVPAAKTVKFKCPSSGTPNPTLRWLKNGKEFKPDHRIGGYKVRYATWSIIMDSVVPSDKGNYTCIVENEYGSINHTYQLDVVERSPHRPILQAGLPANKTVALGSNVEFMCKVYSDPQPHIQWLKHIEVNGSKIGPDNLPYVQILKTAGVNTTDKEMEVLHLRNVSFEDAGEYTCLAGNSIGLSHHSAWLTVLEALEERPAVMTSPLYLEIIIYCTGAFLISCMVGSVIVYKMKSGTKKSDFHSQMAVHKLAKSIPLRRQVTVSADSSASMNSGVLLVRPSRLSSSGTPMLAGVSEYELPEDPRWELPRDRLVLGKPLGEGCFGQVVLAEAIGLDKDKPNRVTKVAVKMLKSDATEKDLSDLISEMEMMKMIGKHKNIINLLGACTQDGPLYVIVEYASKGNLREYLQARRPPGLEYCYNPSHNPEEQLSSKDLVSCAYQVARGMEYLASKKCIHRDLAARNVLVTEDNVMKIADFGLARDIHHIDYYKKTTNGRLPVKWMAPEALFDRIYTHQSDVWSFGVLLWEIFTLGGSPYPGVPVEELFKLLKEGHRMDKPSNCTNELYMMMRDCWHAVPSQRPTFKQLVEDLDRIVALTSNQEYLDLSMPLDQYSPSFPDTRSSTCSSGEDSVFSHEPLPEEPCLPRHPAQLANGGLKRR
# Chain of Serine/threonine-protein kinase pim-1 (Homo sapiens) (P11309 whole entry, looked up): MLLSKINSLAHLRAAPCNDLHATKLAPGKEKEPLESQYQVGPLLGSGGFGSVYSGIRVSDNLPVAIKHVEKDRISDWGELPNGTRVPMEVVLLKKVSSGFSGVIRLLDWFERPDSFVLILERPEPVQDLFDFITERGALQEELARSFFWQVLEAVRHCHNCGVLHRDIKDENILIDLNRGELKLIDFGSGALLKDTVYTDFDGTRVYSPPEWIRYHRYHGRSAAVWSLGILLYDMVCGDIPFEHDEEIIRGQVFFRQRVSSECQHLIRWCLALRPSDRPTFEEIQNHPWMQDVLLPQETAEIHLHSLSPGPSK
# Chain of Mast/stem cell growth factor receptor Kit (P10721 whole entry): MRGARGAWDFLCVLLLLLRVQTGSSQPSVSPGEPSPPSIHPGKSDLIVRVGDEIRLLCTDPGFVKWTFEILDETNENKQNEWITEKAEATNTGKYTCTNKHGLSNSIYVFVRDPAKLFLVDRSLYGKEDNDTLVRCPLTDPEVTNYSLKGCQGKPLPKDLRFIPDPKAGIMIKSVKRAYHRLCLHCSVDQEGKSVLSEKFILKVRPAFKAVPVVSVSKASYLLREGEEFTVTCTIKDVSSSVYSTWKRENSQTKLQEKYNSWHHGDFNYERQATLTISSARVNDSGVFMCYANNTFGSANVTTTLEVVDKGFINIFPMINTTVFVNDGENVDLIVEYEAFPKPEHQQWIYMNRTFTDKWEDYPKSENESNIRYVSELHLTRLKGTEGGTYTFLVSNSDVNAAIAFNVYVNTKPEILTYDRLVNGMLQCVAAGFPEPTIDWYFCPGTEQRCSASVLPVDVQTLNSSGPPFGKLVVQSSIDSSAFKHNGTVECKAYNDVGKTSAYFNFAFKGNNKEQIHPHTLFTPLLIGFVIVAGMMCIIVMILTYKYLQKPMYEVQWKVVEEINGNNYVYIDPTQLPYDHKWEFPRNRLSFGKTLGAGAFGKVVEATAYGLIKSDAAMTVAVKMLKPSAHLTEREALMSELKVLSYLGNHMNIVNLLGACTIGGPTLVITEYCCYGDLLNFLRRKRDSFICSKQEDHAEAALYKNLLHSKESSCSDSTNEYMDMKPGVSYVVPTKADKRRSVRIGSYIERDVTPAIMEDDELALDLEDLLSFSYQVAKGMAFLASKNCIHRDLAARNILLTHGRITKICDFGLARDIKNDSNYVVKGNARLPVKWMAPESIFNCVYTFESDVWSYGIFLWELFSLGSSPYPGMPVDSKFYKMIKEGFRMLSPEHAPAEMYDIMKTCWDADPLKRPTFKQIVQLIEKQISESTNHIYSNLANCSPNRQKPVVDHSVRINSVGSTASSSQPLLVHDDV
# Chain of Dual specificity mitogen-activated protein kinase kinase 1 (Homo sapiens) (Q02750 whole entry): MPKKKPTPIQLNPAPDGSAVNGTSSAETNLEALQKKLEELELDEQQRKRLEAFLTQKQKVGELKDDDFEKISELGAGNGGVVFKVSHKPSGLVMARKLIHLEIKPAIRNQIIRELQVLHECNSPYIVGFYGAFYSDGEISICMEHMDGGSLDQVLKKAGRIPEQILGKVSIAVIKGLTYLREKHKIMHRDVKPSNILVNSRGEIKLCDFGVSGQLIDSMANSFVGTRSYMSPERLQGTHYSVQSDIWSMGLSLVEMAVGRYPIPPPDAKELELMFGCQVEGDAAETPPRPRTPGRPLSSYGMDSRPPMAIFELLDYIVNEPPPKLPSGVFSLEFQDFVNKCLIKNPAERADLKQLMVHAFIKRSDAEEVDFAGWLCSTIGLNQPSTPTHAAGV
# Chain of High affinity nerve growth factor receptor (Homo sapiens) (P04629 33-796 limits assumed): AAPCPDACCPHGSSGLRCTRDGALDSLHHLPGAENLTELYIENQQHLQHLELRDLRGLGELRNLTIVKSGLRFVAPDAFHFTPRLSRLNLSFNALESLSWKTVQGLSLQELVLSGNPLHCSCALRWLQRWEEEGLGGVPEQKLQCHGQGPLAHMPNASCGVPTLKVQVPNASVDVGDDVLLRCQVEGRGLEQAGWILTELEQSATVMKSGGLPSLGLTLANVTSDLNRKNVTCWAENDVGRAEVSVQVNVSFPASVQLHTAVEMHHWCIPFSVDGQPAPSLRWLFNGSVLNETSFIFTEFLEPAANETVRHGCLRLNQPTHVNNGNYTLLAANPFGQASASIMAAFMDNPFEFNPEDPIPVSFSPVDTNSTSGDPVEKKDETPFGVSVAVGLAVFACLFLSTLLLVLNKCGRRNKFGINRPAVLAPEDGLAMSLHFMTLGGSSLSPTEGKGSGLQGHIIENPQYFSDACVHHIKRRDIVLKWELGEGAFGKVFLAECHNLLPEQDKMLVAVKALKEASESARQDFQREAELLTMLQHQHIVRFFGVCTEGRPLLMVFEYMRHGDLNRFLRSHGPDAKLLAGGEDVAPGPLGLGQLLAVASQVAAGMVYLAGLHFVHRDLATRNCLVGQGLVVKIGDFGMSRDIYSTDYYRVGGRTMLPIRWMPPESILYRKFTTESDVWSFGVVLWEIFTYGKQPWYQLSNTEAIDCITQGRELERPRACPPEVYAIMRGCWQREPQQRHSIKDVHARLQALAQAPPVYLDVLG
inhibition [1],residual activity [2] [%],residual activity [3] [%],residual activity [4] [%],residual activity [5] [%],residual activity [6] [%],residual activity [7] [%],residual activity [8] [%],residual activity [9] [%],residual activity [10] [%],residual activity [11] [%],residual activity [12] [%],residual activity [13] [%],SMILES
Active,83,85,89,88,100,83,68,8.9,100,100,46,87,COc1cc(-c2c[nH]c3ncc(-c4cccc(N)c4)cc23)cc(OC)c1OC
–,100,59,87,27,84,11,17,0.85,90,31,2.2,95,COc1ccc(-c2c[nH]c3ncc(-c4ccc(C(=O)N5CCOCC5)c(N)c4)cc23)cc1OC
Active,100,74,85,68,98,26,36,13,89,65,10,100,COc1ccc(-c2cnc3[nH]cc(-c4ccc(OC)c(OC)c4)c3c2)cc1OC
Active,100,76,88,71,84,11,16,17,92,91,26,93,COc1ccc(-c2cnc3[nH]cc(-c4ccc(OC)c(OC)c4)c3c2)cc1N
Active,100,78,83,71,99,46,45,25,84,76,70,94,COc1ccc(-c2c[nH]c3ncc(-c4cc(OC)c(OC)c(OC)c4)cc23)cc1OC
